How the values were obtained:
[1] = association constant; cited from earlier work
[2] = cited from earlier work
[3] = association constant; cited from earlier work; remark: listed apart in the source
[4] = system: secondary iron overload from multiple transfusions; settings: cited from earlier work
[5] = stability as solid and in concentrated solution; format: physicochemical

In the case of `CC(=O)N(O)CCCCCNC(=O)CCC(=O)N(O)CCCCCNC(=O)CCC(=O)N(O)CCCCCN` [Deferoxamine B, N′-[5-[[4-[[5-(acetylhydroxyamino)pentyl]amino]-1,4-dioxobutyl]hydroxyamino]pentyl]-N-(5-aminopentyl)-N-hydroxy-butanediamide], the “affinity for ferric iron (Ka)” value [1] is listed as 10^31, the oral absorption [2] is listed as “not well-absorbed orally” and the “affinity for calcium (Ka)” value [3] is listed as 10^2. The “accumulation of hepatic iron” value ([4]; long term therapy) was “slows accumulation of hepatic iron”, the “progression of hepatic fibrosis” value ([4]; long term therapy) was “retards or eliminates progression of hepatic fibrosis” and the iron excretion ([4]; patients with secondary iron overload from multiple transfusions) was “promotes iron excretion”. The stability in solution ([5]; concentrated solution, on evaporation) was “prone to decomposition in concentrated solution” and the stability as solid ([5]; solid) was “reasonably stable solid”.
